US11185100B2 (priority 2014, dated 2021)
Structures can show the parent of a compound that is named as a salt.

What was measured:
cat T1R1/T1R3 receptor [1] = target: T1, cat T1R1/T1R3 receptor (Felis catus, UniProt E3UMS2); assay: Activation of cat T1R1/T1R3 receptor by nucleotide derivatives alone, with alanine and/or IMP; HEK293 cells, intracellular calcium fluorescence (Example 1); format: cell-based
Description: […] Activation of the T1R1/T1R3 receptor was detected by a change in intracellular calcium levels using a calcium sensitive fluorescent dye. Cells that express T1R3 but not T1R1 were used as a control. A FLIPR® Tetra or a FlexStation® 3 was used for data capture.
The term half maximal effective concentration (EC50) refers to the concentration of a compound which induces a response halfway between the baseline and the maximum after a specified exposure time. In each experiment, serial dilutions of up to 0.1 mM, 1 mM or 10 mM of the nucleotide derivative were added to the T1R1/T1R3-expressing cells.

cat T1R1/T1R3 receptor [2] = target: T1, cat T1R1/T1R3 receptor; assay: cell-based; format: cell-based
Outline: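 Umami receptor activation in HEK293 cells stably expressing T1R3 with inducible T1R1, exposed to nucleotide derivatives alone or combined with amino acids and/or nucleotides. Intracellular calcium read with a calcium-sensitive fluorescent dye and/or luminescent reporter; cells expressing T1R3 without T1R1 served as control.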

T1R1/T1R3 receptor [3] = target: T2, T1R1/T1R3 receptor (Felis catus, UniProt E3UMS2); assay: Agonist screening of transmembrane compounds on T1R1/T1R3 in HEK293 cells (Example 8); format: cell-based, cat; settings: compound alone
Protocol: (§1) Agonist Screening Method: HEK293 cells that stably express T1R3 and inducibly express T1R1 were exposed to a transmembrane compound. Activation of the T1R1/T1R3 receptor was detected by a change in intracellular calcium levels using a calcium sensitive fluorescent dye and/or a luminescent reporter system. […] A FLIPR® Tetra or a FlexStation® 3 was used for data capture.
Each transmembrane compound was tested at concentrations of 0.01 mM, 0.1 mM, and 1 mM. […] To generate the dose response curves, the transmembrane compound was tested at concentrations of between 0.0001 mM and 1.0 mM in the presence of GMP and Ala.

T1R1/T1R3 receptor [4] = target: T2, T1R1/T1R3 receptor; assay: PAM screening of transmembrane compounds with GMP and Ala on T1R1/T1R3 in HEK293 cells (Example 8); format: cell-based, cat; settings: in the presence of GMP and Alanine
Description: as §1, with “PAM” for “Agonist”, “to” for “to a”, “compound alone or in combination with Ala and GMP to activate the umami receptor.” for “compound.”
Dose response curves were generated for each transmembrane compound at concentrations of 0 (buffer only), 0.01, 0.1 and 1 mM, wherein each of the three concentrations of transmembrane compound was tested in combination with 0.03 mM GMP+100 mM Ala (T1); 0.6 mM GMP+10 mM Ala (T2); 0.1 mM GMP+60 mM Ala (T3) and 0.3 mM GMP+60 mM Ala (T4). The T4 mixture was also tested in a 2-fold dilution series (the T4(X) Concentration). In these experiments, the first test concentration was 2× (2 times) the T4 concentration. The subsequent test concentrations were 2-fold dilutions from that (1×, 0.5× etc.). This dilution series was tested with or without the addition of the test compound at a constant 0.3 mM concentration.
Activation of the umami receptor was also determined in the presence of 1 mM GMP+100 mM Ala to generate a “maximum” umami receptor activation level.

T1R1/T1R3 receptor [5] = target: T2, T1R1/T1R3 receptor; assay: Activation of T1R1/T1R3 receptor by transmembrane compounds and nucleotide derivatives, conducted as in Examples 1, 2 and 5 (Example 7); format: cell-based, cat
Description: (§2) Methods: HEK293 cells that stably express T1R3 and inducibly express T1R1 were exposed to nucleotide derivatives alone to activate the umami receptor. Activation of the T1R1/T1R3 receptor was detected by a change in intracellular calcium levels using a calcium sensitive fluorescent dye. Cells that express T1R3 but not T1R1 were used as a control. A FLIPR® Tetra or a FlexStation® 3 was used for data capture.
as §2, with “alone or in combination with one or more amino acids and/or one or more nucleotides” for “alone”, “dye and/or a luminescent reporter system.” for “dye.”
as §2, with “transmembrane compounds” for “nucleotide derivatives”, “alone or in combination with one or more amino acids and/or one or more nucleotides” for “alone”
In each experiment, serial dilutions of up to 10 mM of the transmembrane compound were added to the T1R1/T1R3-expressing cells.

[6] = compound alone in buffer, read-out: EC50- alone
[7] = with 20 mM alanine, read-out: EC50- with Ala
[8] = EC50- with IMP (mM), with 0.2 mM IMP

C[C@H](N)C(=O)O [alanine, reference compound] was tested. Which EC50 (cat T1R1/T1R3 receptor [1]; [6]) did it give?
The EC50 was 13.6 mM.

With Nc1ncnc2c1ncn2C1OC(COP(=O)(O)O)C(OP(=O)(O)O)C1O (stereo not drawn) [listing 1 of 2 here] as the compound, how does the EC50 (cat T1R1/T1R3 receptor [1]; [6]) read?
Its EC50 is over 0.03 mM.

And the EC50 (cat T1R1/T1R3 receptor [1]; [7])?
Its EC50 is 0.003 ± 0.0003 mM.

What does the source list for O=c1nc[nH]c2c1ncn2C1O[C@H](COP(=O)(O)OP(=O)(O)OP(=O)(O)O)[C@@H](O)[C@H]1O (stereo partly drawn) [inosine triphosphate (ITP) trisodium salt]?
Activity (cat T1R1/T1R3 receptor [2]): active; Max. resp. % of IMP (cat T1R1/T1R3 receptor [2]; hek293 cells): 25.1 % of IMP; EC50 (cat T1R1/T1R3 receptor [2]; in the presence of 20 mM alanine, read-out: EC50- with Ala): 80 µM; EC50 (cat T1R1/T1R3 receptor [1]; EC50- with Ala and IMP (mM), with 20 mM alanine and 0.2 mM IMP): 0.03 ± 0.01 mM; EC50 (cat T1R1/T1R3 receptor [1]; [8]): 0.02 ± 0.03 mM; EC50 (cat T1R1/T1R3 receptor [1]; [6]): 0.05 ± 0.03 mM

For COC(=O)[C@H](Cc1ccccc1)NCc1ccccc1 [N-Benzyl-L-phenylalanine methyl ester], which “agonist profile assessment (activation of T1R1/T1R3 by the compound alone)” value (T1R1/T1R3 receptor [3]) is on record?
The value was “agonist”.

And the “PAM profile assessment (activation of T1R1/T1R3 in the presence of GMP and Alanine)” value (T1R1/T1R3 receptor [4])?
Its value is “PAM activity”.

And the “Max resp ΔF/F +Alanine (20 mM)” value (T1R1/T1R3 receptor [5])?
The value was 1.8725 ΔF/F.

What about the “Thres +Alanine (20 mM)” value (T1R1/T1R3 receptor [5]) of the same compound?
Its value is 0.01 mM.

And the “Max resp % of Ala +IMP (0.2 mM)” value (T1R1/T1R3 receptor [5]; +IMP (0.2 mM))?
Its value is 289.4 % of Ala.

And the “Max resp ΔF/F +IMP (0.2 mM)” value (T1R1/T1R3 receptor [5]; +IMP (0.2 mM))?
The value was 2.2500 ΔF/F.

And the “Thres +IMP (0.2 mM)” value (T1R1/T1R3 receptor [5]; +IMP (0.2 mM))?
The value was 0.003 mM.

What about the “Max resp % of IMP +Alanine (20 mM)” value (T1R1/T1R3 receptor [5]; hek293 cells) of the same compound?
Its value is 273.4 % of IMP.

What about the Activity (T1R1/T1R3 receptor [5]; modulation of T1R1/T1R3) of the same compound?
The Activity was “active”.

Which EC50 (cat T1R1/T1R3 receptor [1]; [8]) does the source give for Nc1ncnc2c1ncn2C1OC(COP(=O)(O)O)C(OP(=O)(O)O)C1O (stereo not drawn) [listing 2 of 2 here] here?
Its EC50 is over 0.01 mM.

And the EC50 (cat T1R1/T1R3 receptor [1]; [6])?
The EC50 was over 0.01 mM.

And the EC50 (cat T1R1/T1R3 receptor [1]; [7])?
The EC50 was over 0.01 mM.
